Where a SMILES comes first, the peptide text is derived from it. Bridges are numbered along the chain shown (N, C = ends). [ ]: non-standard residue; d: D form. hMet = CSCCC[C@H](N)C(=O)O
Experiments:
[1] = species on record: Rattus norvegicus; assay: Selectivity ratio of IC50 for rat alpha6/alpha3beta4 nACHR expressed in xenopous laevis oocyte at -80 mV holding potential to IC50 for rat alpha3beta4 nACHR expressed in xenopous laevis oocyte at -80 mV holding potential
[2] = molecular target: T1, Neuronal acetylcholine receptor; alpha3/beta4 (Rattus norvegicus, UniProt P04757+P12392); assay: Antagonist activity at rat alpha3beta4 nACHR expressed in xenopous laevis oocyte assessed as inhibition of ACh induced channel current at -80 mV holding potential by two electrode voltage clamp method
T1 sequence (P04757 whole entry): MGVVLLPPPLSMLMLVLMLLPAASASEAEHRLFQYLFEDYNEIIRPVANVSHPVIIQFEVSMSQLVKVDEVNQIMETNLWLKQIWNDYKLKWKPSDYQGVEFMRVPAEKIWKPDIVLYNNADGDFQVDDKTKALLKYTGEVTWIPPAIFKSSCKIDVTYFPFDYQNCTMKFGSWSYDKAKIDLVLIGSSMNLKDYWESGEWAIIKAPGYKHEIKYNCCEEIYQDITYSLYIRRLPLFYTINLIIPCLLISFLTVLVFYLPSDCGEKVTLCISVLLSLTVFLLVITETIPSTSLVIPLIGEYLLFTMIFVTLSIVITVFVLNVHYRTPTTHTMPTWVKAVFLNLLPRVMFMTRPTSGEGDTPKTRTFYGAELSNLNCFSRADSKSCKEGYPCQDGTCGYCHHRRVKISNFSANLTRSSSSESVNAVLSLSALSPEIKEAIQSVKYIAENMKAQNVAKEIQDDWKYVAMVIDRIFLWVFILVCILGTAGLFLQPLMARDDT
T1 sequence (P12392 whole entry): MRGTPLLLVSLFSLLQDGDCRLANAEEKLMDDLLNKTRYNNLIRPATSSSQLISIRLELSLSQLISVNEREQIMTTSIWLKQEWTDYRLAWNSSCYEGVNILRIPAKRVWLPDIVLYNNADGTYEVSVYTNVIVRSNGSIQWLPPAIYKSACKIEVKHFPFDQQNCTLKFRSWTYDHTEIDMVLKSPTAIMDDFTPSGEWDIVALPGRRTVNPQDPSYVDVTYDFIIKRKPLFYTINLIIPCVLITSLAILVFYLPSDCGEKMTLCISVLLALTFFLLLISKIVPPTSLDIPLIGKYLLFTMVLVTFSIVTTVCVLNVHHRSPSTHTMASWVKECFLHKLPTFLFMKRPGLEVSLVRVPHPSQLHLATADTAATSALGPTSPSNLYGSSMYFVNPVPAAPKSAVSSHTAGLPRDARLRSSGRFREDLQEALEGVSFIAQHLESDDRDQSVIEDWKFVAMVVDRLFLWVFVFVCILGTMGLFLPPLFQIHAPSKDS

[3] = molecular target: T2, Nicotinic acetylcholine receptor alpha6/alpha3/beta4 (Rattus norvegicus, UniProt P04757+P12392+P43143); assay: Antagonist activity at rat alpha6/alpha3beta4 nACHR expressed in xenopous laevis oocyte assessed as inhibition of ACh induced channel current at -80 mV holding potential by two electrode voltage clamp method
T2 sequence (P04757 whole entry): as the sequence (P04757 whole entry) above
T2 sequence (P12392 whole entry): as the sequence (P12392 whole entry) above
T2 sequence (P43143 whole entry): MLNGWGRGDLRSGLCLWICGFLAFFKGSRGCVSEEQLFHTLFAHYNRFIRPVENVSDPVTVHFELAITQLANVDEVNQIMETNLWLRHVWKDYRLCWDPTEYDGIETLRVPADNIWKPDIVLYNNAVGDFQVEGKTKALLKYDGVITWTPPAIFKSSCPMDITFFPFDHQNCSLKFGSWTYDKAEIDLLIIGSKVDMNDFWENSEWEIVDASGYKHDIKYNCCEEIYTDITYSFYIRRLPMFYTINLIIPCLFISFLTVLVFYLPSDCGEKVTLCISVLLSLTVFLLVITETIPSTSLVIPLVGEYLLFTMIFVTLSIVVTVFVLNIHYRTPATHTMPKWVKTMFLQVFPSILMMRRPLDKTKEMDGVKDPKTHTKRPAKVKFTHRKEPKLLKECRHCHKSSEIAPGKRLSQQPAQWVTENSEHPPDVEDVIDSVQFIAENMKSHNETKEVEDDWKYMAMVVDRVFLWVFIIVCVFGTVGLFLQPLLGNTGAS

[4] = molecular target: T1, Neuronal acetylcholine receptor; alpha3/beta4; assay: Antagonist activity at rat alpha3beta4 nACHR expressed in xenopous laevis oocyte assessed as inhibition of ACh induced channel current at -70 mV holding potential by two electrode voltage clamp method
[5] = molecular target: T2, Nicotinic acetylcholine receptor alpha6/alpha3/beta4; assay: Antagonist activity at rat alpha6/alpha3beta4 nACHR expressed in xenopous laevis oocyte assessed as inhibition of ACh induced channel current at -70 mV holding potential by two electrode voltage clamp method
[6] = species on record: Rattus norvegicus; assay: Selectivity ratio of IC50 for rat alpha6/alpha3beta4 nACHR expressed in xenopous laevis oocyte at -70 mV holding potential to IC50 for rat alpha3beta4 nACHR expressed in xenopous laevis oocyte at -70 mV holding potential
[7] = molecular target: T2, Nicotinic acetylcholine receptor alpha6/alpha3/beta4; assay: Antagonist activity at rat alpha6/alpha3beta4 nACHR expressed in xenopous laevis oocyte assessed as inhibition of ACh induced channel current after 5 mins at -70 mV holding potential by two electrode voltage clamp method
[8] = molecular target: T1, Neuronal acetylcholine receptor; alpha3/beta4; assay: Antagonist activity at rat alpha3beta4 nACHR expressed in xenopous laevis oocyte assessed as inhibition of ACh induced channel current after 5 mins at -70 mV holding potential by two electrode voltage clamp method
[9] = molecular target: Neuronal acetylcholine receptor; alpha3/beta2 (Rattus norvegicus, UniProt P04757+P12390); assay: Antagonist activity at rat alpha3beta2 nACHR expressed in xenopous laevis oocyte assessed as inhibition of ACh induced channel current after 5 mins at -70 mV holding potential by two electrode voltage clamp method
[10] = molecular target: Neuronal acetylcholine receptor; alpha2/beta4 (Rattus norvegicus, UniProt P12389+P12392); assay: Antagonist activity at rat alpha2beta4 nACHR expressed in xenopous laevis oocyte assessed as inhibition of ACh induced channel current after 5 mins at -70 mV holding potential by two electrode voltage clamp method
Chain of Neuronal acetylcholine receptor; alpha2/beta4 (P12389 whole entry): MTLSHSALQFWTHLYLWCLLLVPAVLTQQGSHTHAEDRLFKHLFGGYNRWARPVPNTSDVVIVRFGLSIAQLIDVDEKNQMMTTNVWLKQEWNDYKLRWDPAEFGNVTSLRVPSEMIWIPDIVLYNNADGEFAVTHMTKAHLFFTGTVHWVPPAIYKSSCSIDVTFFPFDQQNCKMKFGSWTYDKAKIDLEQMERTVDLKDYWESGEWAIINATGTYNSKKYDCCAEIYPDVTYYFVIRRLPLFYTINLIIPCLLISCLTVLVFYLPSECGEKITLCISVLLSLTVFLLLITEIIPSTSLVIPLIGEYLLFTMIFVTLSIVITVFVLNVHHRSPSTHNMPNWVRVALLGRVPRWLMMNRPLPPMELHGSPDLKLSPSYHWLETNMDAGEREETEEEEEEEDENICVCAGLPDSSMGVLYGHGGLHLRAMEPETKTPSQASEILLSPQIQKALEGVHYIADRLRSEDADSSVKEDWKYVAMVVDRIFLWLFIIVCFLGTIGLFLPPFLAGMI
Chain of Neuronal acetylcholine receptor; alpha2/beta4 (P12392 whole entry): as the sequence (P12392 whole entry) above

[11] = molecular target: Neuronal acetylcholine receptor; alpha2/beta2 (Rattus norvegicus, UniProt P12389+P12390); assay: Antagonist activity at rat alpha2beta2 nACHR expressed in xenopous laevis oocyte assessed as inhibition of ACh induced channel current after 5 mins at -70 mV holding potential by two electrode voltage clamp method
Chain of Neuronal acetylcholine receptor; alpha2/beta2 (P12389 whole entry): as the sequence (P12389 whole entry) above
Chain of Neuronal acetylcholine receptor; alpha2/beta2 (P12390 whole entry): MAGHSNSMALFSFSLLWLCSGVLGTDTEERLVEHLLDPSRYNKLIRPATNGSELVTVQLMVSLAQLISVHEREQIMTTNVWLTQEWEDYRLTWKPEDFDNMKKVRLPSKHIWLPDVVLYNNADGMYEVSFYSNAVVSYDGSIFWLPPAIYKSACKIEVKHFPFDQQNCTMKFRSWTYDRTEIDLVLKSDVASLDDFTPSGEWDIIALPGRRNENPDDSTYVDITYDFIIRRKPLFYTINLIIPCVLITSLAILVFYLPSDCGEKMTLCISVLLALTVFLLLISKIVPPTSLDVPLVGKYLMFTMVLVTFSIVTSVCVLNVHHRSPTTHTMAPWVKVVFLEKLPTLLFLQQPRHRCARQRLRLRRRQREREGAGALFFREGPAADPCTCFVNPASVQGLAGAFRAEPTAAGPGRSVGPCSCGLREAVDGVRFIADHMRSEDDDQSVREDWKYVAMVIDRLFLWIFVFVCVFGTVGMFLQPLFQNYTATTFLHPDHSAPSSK

[12] = molecular target: Nicotinic acetylcholine receptor alpha9/alpha10 (Rattus norvegicus, UniProt P43144+Q9JLB5); assay: Antagonist activity at rat alpha9alpha10 nACHR expressed in xenopous laevis oocyte assessed as inhibition of ACh induced channel current after 5 mins at -70 mV holding potential by two electrode voltage clamp method
[13] = molecular target: Neuronal acetylcholine receptor; alpha4/beta2 (Rattus norvegicus, UniProt P09483+P12390); assay: Antagonist activity at rat alpha4beta2 nACHR expressed in xenopous laevis oocyte assessed as inhibition of ACh induced channel current after 5 mins at -70 mV holding potential by two electrode voltage clamp method
[14] = molecular target: Neuronal acetylcholine receptor; alpha4/beta4 (Rattus norvegicus, UniProt P09483+P12392); assay: Antagonist activity at rat alpha4beta4 nACHR expressed in xenopous laevis oocyte assessed as inhibition of ACh induced channel current after 5 mins at -70 mV holding potential by two electrode voltage clamp method
[15] = molecular target: Neuronal acetylcholine receptor subunit alpha-7 (Rattus norvegicus, UniProt Q05941); assay: Antagonist activity at rat alpha7 nACHR expressed in xenopous laevis oocyte assessed as inhibition of ACh induced channel current after 5 mins at -70 mV holding potential by two electrode voltage clamp method
Chain of Neuronal acetylcholine receptor subunit alpha-7 (Q05941 whole entry): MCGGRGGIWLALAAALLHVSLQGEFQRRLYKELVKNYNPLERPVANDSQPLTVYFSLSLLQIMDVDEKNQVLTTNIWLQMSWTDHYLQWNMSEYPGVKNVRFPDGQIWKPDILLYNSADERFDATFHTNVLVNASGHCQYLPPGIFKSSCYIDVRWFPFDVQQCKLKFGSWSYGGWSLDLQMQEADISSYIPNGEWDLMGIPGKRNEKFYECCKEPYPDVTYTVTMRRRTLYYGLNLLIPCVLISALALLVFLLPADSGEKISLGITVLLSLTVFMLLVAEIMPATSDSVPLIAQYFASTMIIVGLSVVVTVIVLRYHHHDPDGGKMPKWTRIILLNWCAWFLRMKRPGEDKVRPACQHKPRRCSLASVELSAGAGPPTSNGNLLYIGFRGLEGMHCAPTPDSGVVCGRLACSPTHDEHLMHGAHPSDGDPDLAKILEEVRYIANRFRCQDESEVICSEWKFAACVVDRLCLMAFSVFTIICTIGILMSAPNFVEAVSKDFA

Structure (SMILES) | IC50 [7] [µM] | IC50 [8] [µM] | further results
CC[C@H](C)[C@@H]1NC(=O)[C@H](Cc2cnc[nH]2)NC(=O)[C@@H]2CCCN2C(=O)[C@H](C)NC(=O)[C@H](C)NC(=O)[C@H](C(C)C)NC(=O)[C@H](CC(N)=O)NC(=O)[C@@H]2CSSC[C@H](NC(=O)[C@@H](NC(=O)CN)CSSC[C@H](C(=O)O)NC1=O)C(=O)N[C@@H](CO)C(=O)N[C@@H](Cc1c[nH]cn1)C(=O)N1CCC[C@H]1C(=O)N[C@@H](C)C(=O)N2 |  |  | Ratio IC50 [1]: 14; IC50 [2]: 0.37 µM; IC50 [3]: 5.1 µM
CC(C)C[C@@H]1NC(=O)[C@H](C(C)C)NC(=O)[C@H](C)NC(=O)[C@@H]2CSSC[C@H](NC(=O)CN)C(=O)N[C@@H](CSSC[C@H](C(N)=O)NC(=O)[C@H](Cc3ccc(O)cc3)NC1=O)C(=O)N[C@@H](CO)C(=O)N[C@@H]([C@@H](C)O)C(=O)N1CCC[C@H]1C(=O)N1CCC[C@H]1C(=O)N2 |  |  | IC50 [4]: 0.0277 µM; IC50 [5]: 0.00154 µM; Ratio IC50 [6]: 0.056
CC[C@H](C)[C@@H]1NC(=O)[C@H](Cc2cnc[nH]2)NC(=O)[C@@H]2CCCN2C(=O)[C@H](CC(N)=O)NC(=O)[C@H](CC(N)=O)NC(=O)[C@H](C(C)C)NC(=O)[C@H](CC(N)=O)NC(=O)[C@@H]2CSSC[C@H](NC(=O)[C@@H](NC(=O)CN)CSSC[C@H](C(=O)O)NC1=O)C(=O)N[C@@H](CO)C(=O)N[C@@H](Cc1c[nH]cn1)C(=O)N1CCC[C@H]1C(=O)N[C@@H](C)C(=O)N2 |  |  | Ratio IC50 [1]: 3.1; IC50 [2]: 0.0473 µM; IC50 [3]: 0.147 µM
CC(C)C[C@@H]1NC(=O)[C@H](C(C)C)NC(=O)[C@H](C)NC(=O)[C@@H]2CSSC[C@H](NC(=O)CN)C(=O)N[C@@H](CSSC[C@H](C(N)=O)NC(=O)[C@H](Cc3ccc(O)cc3)NC1=O)C(=O)N[C@@H](CO)C(=O)N[C@@H](C)C(=O)N[C@@H](CCCN)C(=O)N1CCC[C@H]1C(=O)N2 | 0.0581 | 1.2 | 
CC[C@H](C)[C@@H]1NC(=O)[C@@H]2CCCN2C(=O)[C@H](CO)NC(=O)[C@H](CCCSC)NC(=O)[C@H](C)NC(=O)[C@H](CO)NC(=O)[C@@H]2CSSC[C@H](NC(=O)[C@H](C)N)C(=O)N[C@@H](CSSC[C@@H](C(N)=O)NC1=O)C(=O)N[C@@H](CO)C(=O)N[C@@H](Cc1cnc[nH]1)C(=O)N1CCC[C@H]1C(=O)N[C@@H](C(C)C)C(=O)N2 (H-ACCSHPVCSA[hMet]SPIC-NH2; disulfide 2-8, 3-15) | 0.278 | 0.0619 | 
CC[C@H](C)[C@@H]1NC(=O)[C@@H]2CCCN2C(=O)[C@H](CO)NC(=O)[C@H](CCCSC)NC(=O)[C@H](C)NC(=O)[C@H](CO)NC(=O)[C@@H]2CSSC[C@H](NC(=O)CN)C(=O)N[C@@H](CSSC[C@@H](C(N)=O)NC1=O)C(=O)N[C@@H](C)C(=O)N[C@@H](Cc1cnc[nH]1)C(=O)N1CCC[C@H]1C(=O)N[C@@H](C(C)C)C(=O)N2 (H-GCCAHPVCSA[hMet]SPIC-NH2; disulfide 2-8, 3-15) | 0.0641 | 0.0108 | 
CC[C@H](C)[C@@H]1NC(=O)[C@@H]2CCCN2C(=O)[C@H](CO)NC(=O)[C@H](CCCSC)NC(=O)[C@H](C)NC(=O)[C@H](CO)NC(=O)[C@@H]2CSSC[C@H](NC(=O)CN)C(=O)N[C@@H](CSSC[C@@H](C(N)=O)NC1=O)C(=O)N[C@@H](CO)C(=O)N[C@@H](C)C(=O)N1CCC[C@H]1C(=O)N[C@@H](C(C)C)C(=O)N2 (H-GCCSAPVCSA[hMet]SPIC-NH2; disulfide 2-8, 3-15) | > 10 | > 10 | 
CC[C@H](C)[C@@H]1NC(=O)[C@@H]2CCCN2C(=O)[C@H](CO)NC(=O)[C@H](CCCSC)NC(=O)[C@H](C)NC(=O)[C@H](CO)NC(=O)[C@@H]2CSSC[C@H](NC(=O)CN)C(=O)N[C@@H](CSSC[C@@H](C(N)=O)NC1=O)C(=O)N[C@@H](CO)C(=O)N[C@@H](Cc1cnc[nH]1)C(=O)N[C@@H](C)C(=O)N[C@@H](C(C)C)C(=O)N2 (H-GCCSHAVCSA[hMet]SPIC-NH2; disulfide 2-8, 3-15) | > 10 | > 10 | 
CC[C@H](C)[C@@H]1NC(=O)[C@@H]2CCCN2C(=O)[C@H](CO)NC(=O)[C@H](CCCSC)NC(=O)[C@H](C)NC(=O)[C@H](C)NC(=O)[C@@H]2CSSC[C@H](NC(=O)CN)C(=O)N[C@@H](CSSC[C@@H](C(N)=O)NC1=O)C(=O)N[C@@H](CO)C(=O)N[C@@H](Cc1cnc[nH]1)C(=O)N1CCC[C@H]1C(=O)N[C@@H](C(C)C)C(=O)N2 (H-GCCSHPVCAA[hMet]SPIC-NH2; disulfide 2-8, 3-15) |  |  | IC50 [9]: > 10 µM; IC50 [10]: > 10 µM; IC50 [11]: > 10 µM; IC50 [12]: > 10 µM; IC50 [13]: > 10 µM; IC50 [14]: > 10 µM; IC50 [15]: > 10 µM
CC[C@H](C)[C@@H]1NC(=O)[C@H](C)NC(=O)[C@H](CO)NC(=O)[C@H](CCCSC)NC(=O)[C@H](C)NC(=O)[C@H](CO)NC(=O)[C@@H]2CSSC[C@H](NC(=O)CN)C(=O)N[C@@H](CSSC[C@@H](C(N)=O)NC1=O)C(=O)N[C@@H](CO)C(=O)N[C@@H](Cc1cnc[nH]1)C(=O)N1CCC[C@H]1C(=O)N[C@@H](C(C)C)C(=O)N2 (H-GCCSHPVCSA[hMet]SAIC-NH2; disulfide 2-8, 3-15) | > 10 | > 10 | 
CSCCC[C@@H]1NC(=O)[C@H](C)NC(=O)[C@H](CO)NC(=O)[C@@H]2CSSC[C@H](NC(=O)CN)C(=O)N[C@@H](CSSC[C@@H](C(N)=O)NC(=O)[C@H](C)NC(=O)[C@@H]3CCCN3C(=O)[C@H](CO)NC1=O)C(=O)N[C@@H](CO)C(=O)N[C@@H](Cc1cnc[nH]1)C(=O)N1CCC[C@H]1C(=O)N[C@@H](C(C)C)C(=O)N2 (H-GCCSHPVCSA[hMet]SPAC-NH2; disulfide 2-8, 3-15) | 0.0458 | 0.0161 | 
CSCCC[C@@H]1NC(=O)[C@H](C)NC(=O)[C@H](CO)NC(=O)[C@@H]2CSSC[C@H](NC(=O)CN)C(=O)N[C@@H](CSSC[C@@H](C(N)=O)NC(=O)[C@H](CC(=O)O)NC(=O)[C@@H]3CCCN3C(=O)[C@H](CO)NC1=O)C(=O)N[C@@H](CO)C(=O)N[C@@H](Cc1cnc[nH]1)C(=O)N1CCC[C@H]1C(=O)N[C@@H](C(C)C)C(=O)N2 (H-GCCSHPVCSA[hMet]SPDC-NH2; disulfide 2-8, 3-15) | 0.0674 | 0.0092 | 
CSCCC[C@@H]1NC(=O)[C@H](C)NC(=O)[C@H](CO)NC(=O)[C@@H]2CSSC[C@H](NC(=O)CN)C(=O)N[C@@H](CSSC[C@@H](C(N)=O)NC(=O)[C@H](CCCNC(=N)N)NC(=O)[C@@H]3CCCN3C(=O)[C@H](CO)NC1=O)C(=O)N[C@@H](CO)C(=O)N[C@@H](Cc1cnc[nH]1)C(=O)N1CCC[C@H]1C(=O)N[C@@H](C(C)C)C(=O)N2 (H-GCCSHPVCSA[hMet]SPRC-NH2; disulfide 2-8, 3-15) | 0.0408 | 0.0098 | 
CSCCC[C@@H]1NC(=O)[C@H](C)NC(=O)[C@H](CO)NC(=O)[C@@H]2CSSC[C@H](NC(=O)CN)C(=O)N[C@@H](CSSC[C@@H](C(N)=O)NC(=O)[C@H](Cc3ccc(O)cc3)NC(=O)[C@@H]3CCCN3C(=O)[C@H](CO)NC1=O)C(=O)N[C@@H](CO)C(=O)N[C@@H](Cc1cnc[nH]1)C(=O)N1CCC[C@H]1C(=O)N[C@@H](C(C)C)C(=O)N2 (H-GCCSHPVCSA[hMet]SPYC-NH2; disulfide 2-8, 3-15) | 0.0387 | 0.01 | 
CC[C@H](C)[C@@H]1NC(=O)[C@H](CO)NC(=O)[C@@H]2CSSC[C@H](NC(=O)CN)C(=O)N[C@@H](CSSC[C@@H](C(N)=O)NC(=O)[C@H]([C@@H](C)CC)NC(=O)[C@@H]3CCCN3C(=O)[C@H](CO)NC(=O)[C@H](CCCSC)NC1=O)C(=O)N[C@@H](CO)C(=O)N[C@@H](Cc1cnc[nH]1)C(=O)N1CCC[C@H]1C(=O)N[C@@H](C(C)C)C(=O)N2 (H-GCCSHPVCSI[hMet]SPIC-NH2; disulfide 2-8, 3-15) | 0.0504 | 0.0749 | 
C[C@@H]1NC(=O)[C@H](Cc2ccc(O)cc2)NC(=O)[C@@H]2CSSC[C@H](NC(=O)CN)C(=O)N[C@@H](CSSC[C@@H](C(N)=O)NC(=O)[C@H](CC(=O)O)NC(=O)[C@@H]3CCCN3C(=O)[C@H](CC(N)=O)NC(=O)[C@H]([C@@H](C)O)NC1=O)C(=O)N[C@@H](CO)C(=O)N[C@@H](Cc1ccc(O)cc1)C(=O)N1CCC[C@H]1C(=O)N1CCC[C@H]1C(=O)N2 (H-GCCSYPPCYATNPDC-NH2; disulfide 2-8, 3-15) |  | 0.75 | 

Reference: ChEMBL document CHEMBL4011630 (J Med Chem, 2017)
